{"source": "paper PMC8533363", "about": "“Effective Perturbations on the Amplitude and Hysteresis of Erg-Mediated Potassium Current Caused by 1-Octylnonyl 8-[(2-hydroxyethyl)[6-oxo-6(undecyloxy)hexyl]amino]-octanoate (SM-102), a Cationic Lipid” (Biomedicines, 2021)", "molecular_target": "T1, erg-mediated K+ (Kerg, KV11) channel (Rattus norvegicus, UniProt O08962)", "T1 construct": "gene Kcnh2; native channel in GH3 pituitary tumor cells", "T1 sequence (O08962 1-1163)": "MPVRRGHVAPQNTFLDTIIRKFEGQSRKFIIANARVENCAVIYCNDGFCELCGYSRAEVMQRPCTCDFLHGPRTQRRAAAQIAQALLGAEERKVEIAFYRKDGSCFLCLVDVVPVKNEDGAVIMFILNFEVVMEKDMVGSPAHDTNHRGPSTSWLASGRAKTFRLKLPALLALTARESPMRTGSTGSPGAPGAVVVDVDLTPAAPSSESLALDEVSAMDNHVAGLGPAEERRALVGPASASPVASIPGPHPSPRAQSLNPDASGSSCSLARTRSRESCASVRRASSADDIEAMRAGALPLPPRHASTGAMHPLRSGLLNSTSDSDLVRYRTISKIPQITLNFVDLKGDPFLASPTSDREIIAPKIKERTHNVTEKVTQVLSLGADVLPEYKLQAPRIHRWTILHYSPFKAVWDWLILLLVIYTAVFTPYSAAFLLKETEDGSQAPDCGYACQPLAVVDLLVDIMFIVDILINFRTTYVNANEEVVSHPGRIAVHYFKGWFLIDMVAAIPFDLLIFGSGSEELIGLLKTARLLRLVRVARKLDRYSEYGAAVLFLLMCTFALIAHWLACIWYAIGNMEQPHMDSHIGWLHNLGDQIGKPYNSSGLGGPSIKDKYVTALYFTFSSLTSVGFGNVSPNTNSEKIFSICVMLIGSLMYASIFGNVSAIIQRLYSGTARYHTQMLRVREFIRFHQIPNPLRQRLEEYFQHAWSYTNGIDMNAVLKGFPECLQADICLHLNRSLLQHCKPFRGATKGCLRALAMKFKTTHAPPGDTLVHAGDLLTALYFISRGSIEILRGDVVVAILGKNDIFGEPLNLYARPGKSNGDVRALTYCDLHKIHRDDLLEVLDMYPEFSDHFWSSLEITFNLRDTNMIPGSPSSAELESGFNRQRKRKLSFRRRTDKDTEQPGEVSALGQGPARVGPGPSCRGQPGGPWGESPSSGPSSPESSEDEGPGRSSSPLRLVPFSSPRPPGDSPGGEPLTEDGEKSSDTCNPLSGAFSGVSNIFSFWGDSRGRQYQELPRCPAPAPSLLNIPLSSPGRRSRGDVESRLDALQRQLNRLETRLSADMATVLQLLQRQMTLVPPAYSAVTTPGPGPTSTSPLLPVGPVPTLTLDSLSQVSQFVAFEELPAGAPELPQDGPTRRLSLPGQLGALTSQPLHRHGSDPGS", "assay": "whole-cell patch clamp of native IK(erg) in GH3 cells; concentration-response and deactivation kinetics (KD […])", "assay_type": "cell-based", "note": "pIC50: −log10 of the molar value.", "data": [{"smiles": "CCCCCCCCCCCOC(=O)CCCCCN(CCO)CCCCCCCC(=O)OC(CCCCCCCC)CCCCCCCC", "note": "[SM-102, 1-octylnonyl 8-[(2-hydroxyethyl)[6-oxo-6-(undecyloxy)hexyl]amino]-octanoate]", "values": [{"measurement": "pIC50", "value": 3.97}]}]}
